Experimental data from patent US10975357B2, “Methods and compositions related to differentiated lung cells” (TRUSTEES OF BOSTON UNIVERSITY, priority 2017, dated 2021).

Experiments:
Assay type in all cases: cell-based, human
[1] = test system: TNFa/NFkB pathway; experiment: Cytokine stimulation of PSC-derived alveolospheres, TNFa/NFkB pathway (Western blot IkB, IL8 and GM-CSF RT-qPCR); settings: TNFa 10 ng/ml and IL1b 10 ng/ml given together
Procedure: (§1) Where indicated in the text, outgrowth and distal/alveolar differentiation of cells after day 15 was performed in “CK+DCI” medium, consisting of cSFDM base, with 3 μM CHIR99021, 10 ng/mL rhKGF, and 50 nM dexamethasone (Sigma), 0.1 mM 8-Bromoadenosine 3′,5′-cyclic monophosphate sodium salt (Sigma) and 0.1 mM 3-Isobutyl-1-methylxanthine (IBMX) (Sigma) (DCI). Immediately after replating cells on Day 15 10 μM Y-27632 was added to the medium for 24 hours. Additional growth factors or cytokines were added or withdrawn as indicated in the text, including FGF10, TGFb, EGF, OSM (20 ng/ml), TNFa (10 ng/ml), and IL-1b (10 ng/ml) with other concentrations listed in figure legends (FIGS. 9A, 9B).
Reverse Transcriptase Quantitative Real Time Polymerase Chain Reaction (RT-qPCR). RT-qPCR was performed as previously described (Hawkins et al. 2017,). Briefly, RNA was isolated according to manufacturer's instructions using the Qiagen miRNeasy mini kit (Qiagen, Venlo, Netherlands). cDNA was generated by reverse transcription of up to 150 ng RNA from each sample using the Applied Biosystems High-Capacity cDNA Reverse Transcription Kit. […] Relative gene expression was calculated based on the average cycle (Ct) value of the technical triplicates, normalized to 18S control, and reported as fold change (2(−ΔΔCT)), with a fold change of 1 being assigned to undifferentiated (day 0) iPSCs or ESCs. […]

[2] = test system: NKX2-1+ lung epithelial progenitor cells; experiment: SFTPCtdTomato reporter induction in day 15 NKX2-1+ progenitor outgrowth in 3D culture (flow cytometry)
Procedure: Purification of NKX2-1+ Lung Progenitors by Cell Sorting. On day 15 of differentiation, cells were incubated at 37° C. in 0.05% trypsin-EDTA (Invitrogen) for 7-15 minutes, until they reached single cell suspension. Cells were then washed in media containing 10% fetal bovine serum (FBS, ThermoFisher), centrifuged at 300g×5 minutes, and resuspended in sort buffer containing Hank's Balanced Salt Solution (ThermoFisher), 2% FBS, 10 μM Y-27632, and 10 uM calcein blue AM (Life Technologies) for dead cell exclusion. Cells not containing the NKX2-1GFP reporter were subsequently stained with CD47-PerCPCy5.5 and CD26-PE antibodies (mouse monoclonal; Biolegend 1:200; 1×10^6 cells in 100 ul) for 30 minutes at 4° C., washed with PBS, and resuspended in sort buffer. Cells were passed through a 40 um strainer prior to sorting (Falcon). Various live cell populations indicated in the text (i.e. GFP+, GFP−, CD47hi/CD26−,CD47lo) were sorted on a high-speed cell sorter (MoFlo Legacy). Directed Differentiation of NKX2-1+ Lung Progenitor Outgrowth into iAEC2s Day 15 cells, either sorted (as described above) or unsorted (dissociated as described above), were resuspended in undiluted growth factor-reduced matrigel (Corning) at a dilution of 50-100 cells/ul, with droplets ranging in size from 20 ul in 96 well plates to 1 ml in 10 cm tissue culture-treated dishes (Corning). Cells in matrigel suspension were incubated at 37° C. for 20-30 minutes, then warm media was added to the plates. […]
Alveolosphere Long Term Culture, Dissociation, and Differentiation. […] These spheres were analyzed as follows: Z-stack images of live alveolospheres were taken and processed on a Keyence (Osaka, Japan) BZ-X700 fluorescence microscope. […] To generate single cell suspensions, cell pellets were incubated in 0.05% trypsin and continued through the trypsin-based dissociation protocol described above, after which they could be passaged into fresh matrigel, analyzed by flow cytometry, or sorted as described above. […]

[3] = test system: RUES2 alveolospheres; experiment: CHIR addback after 1-week withdrawal in alveolospheres; settings: CHIR withdrawn week 4-5, added back week 5-6
Procedure: as §1
(§2) Alveolosphere Long Term Culture, Dissociation, and Differentiation. Alveolospheres developed in 3D matrigel culture outgrowths within 3-7 days after day 15 replating, and were maintained in CK+DCI media for weeks to months, as indicated in the text. These spheres were analyzed as follows: Z-stack images of live alveolospheres were taken and processed on a Keyence (Osaka, Japan) BZ-X700 fluorescence microscope. […] To generate single cell suspensions, cell pellets were incubated in 0.05% trypsin and continued through the trypsin-based dissociation protocol described above, after which they could be passaged into fresh matrigel, analyzed by flow cytometry, or sorted as described above. […]

[4] = test system: BU3 NKX2-1GFP+/SFTPCtdTomato- population; experiment: Late CHIR withdrawal from sorted NKX2-1GFP+/SFTPCtdTomato- population in 3D culture; settings: CHIR withdrawn for 10 days (days 40-50), cells sorted day 38
Procedure: as §1, §2

## TNFa
[1]
  NFkB signaling (IkB protein decrease, IL8 and GM-CSF expression): activated NFkB signaling

## EGF: Recombinant mouse EGF (NSYPGCPSSYDGYCLNGGVCMHIESLDSYTCNCVIGYSGDRCQTRDLRWWELR; UniProt P01132 977-1029, looked up)
[2]; factor added to differentiation media, FIG. 9B
  further SFTPC induction efficiency with addition of the factor: No consistent further SFTPC induction efficiency

## IL1b: Recombinant human IL1-b
[1]
  NFkB signaling (IkB protein decrease, IL8 and GM-CSF expression): activated NFkB signaling

## Cc1c[nH]c(-c2cnc(NCCNc3ccc(C#N)cn3)nc2-c2ccc(Cl)cc2Cl)n1 [CHIR, CHIR99021, reference compound]
[3]
  effect of re-exposure to CHIR after 1-week withdrawal: maintained expression of the SFTPCtdTomato reporter and increased proliferation
[2]; 17-22 total differentiation days
  emergence of SFTPC+ cells from NKX2-1+ precursors in presence of Wnt stimulation via CHIR: 2 to 7 days
[2]; sorted NKX2-1GFP+ cells, by day 21, presence of CHIR in K+DCI base media
  cells with induction of the SFTPCtdTomato reporter: 7.17+/−0.89%
[4]
  efficiency of differentiation into SFTPC+ progeny after withdrawal of CHIR: 68.7%
